Experimental data reported in patent EP0224257A1, “Stabilized benzimidazole derivatives” (SYNTEX (U.S.A.) INC., priority 1985, dated 1987).

Assay: Blood plasma levels after oral administration to dogs
Type: in vivo
Settings: 10 mg/kg, compared with oxfendazole in commercially available form
Description: Dogs were administered orally either amorphous or crystalline oxfendazole at a dose of 10 mg/kg.
Blood samples were drawn and analyzed before administration and on days 1, 2, 3, 7, 10 and 13 following administration. The area under the curve was calculated for plasma concentration vs time profile.

## COC(=O)Nc1nc2ccc([S+]([O-])c3ccccc3)cc2[nH]1 (stereo not shown) [amorphous oxfendazole, methyl 5-(phenylsulfinyl)-1H-benzimidazol-2-yl carbamate]
  plasma level of oxfendazole: higher plasma level
